# Assay results as given in US8124582B2, “Treatment of diabetes” (FibroGen, Inc., priority 2002, dated 2012).
# Assays:
# aldolase = assay: Aldolase protein expression in 293A cells (Western blot); assay type: cell-based, Human; conditions: FIG. 1A
# Method: The effect of compounds of the present invention on expression of proteins and genes involved in glucose regulation and metabolism as follows. Human 293A cells (adenovirus-transformed fetal kidney epithelium) were plated confluent in 35 mm culture dishes and cultured for 1 day at 37° C., 10% CO2 in DMEM containing 5% FBS and 1% penicillin-streptomycin. The media was changed to Opti-Mem I and incubation was continued for an additional 18 to 24 hours. Vehicle control or compound B was then added to the media and cells were incubated for an additional 24, 48 or 72 hours. Plates were placed on ice, culture supernatant was removed, and lysis buffer-1 (LB-1: 10 mM Tris pH 7.4, 1 mM EDTA, 150 mM sodium chloride, 0.5% IGEPAL) was added. Cell lysates were harvested by scraping, incubated for 15 minutes on ice, and then fractionated by centrifugation at 3000×g for 5 minutes at 4° C. The supernatant, which represented the cytosolic fraction, was collected and cytosolic proteins were separated under reducing conditions using SDS-polyacrylamide gel electrophoresis (SDS-PAGE) with equal amounts of protein loaded per lane.
# SDS-PAGE was conducted at 150 V for 2 hours, after which the proteins were transferred to a PVDF membrane at 400 mA for 1.5 hours at 4° C. […]
# [1] = Blood glucose levels after 14 days oral dosing; assay type: in vivo, male Sprague Dawley rats; conditions: rats, 20, 60, 100, or 200 mg/kg oral gavage once daily for 14 days, overnight fast, day 15; FIG. 4
# Method: The effect of compound administration on blood glucose levels was examined as follows. Fifty male Sprague Dawley rats (6-7 weeks old) obtained from Simonsen, Inc. were dosed with 0.5% CMC (Sigma-Aldrich) or compound B at 20, 60, 100, or 200 mg/kg body weight by oral gavage once daily for 14 consecutive days. Animals were monitored for changes in body weight and signs of overt toxicity and mortality. […] One sample of approximately 1 ml was collected into tubes containing EDTA for hematological analysis, and a second sample of approximately 1 ml was collected into a tube with no anticoagulant for serum chemistry analysis. Blood sample analyses were performed by IDEXX (West Sacramento, Calif.).
# [2] = Body weight gain, organ weight and visceral fat after 14 days oral dosing; assay type: in vivo, male Sprague Dawley rats
# Method: The effect of compounds of the present invention on weight loss and fat stores in animals was examined as follows. Fifty male Sprague Dawley rats (6-7 weeks old) obtained from Simonsen, Inc. were dosed with 0.5% CMC (Sigma-Aldrich) or compound B at 20, 60, 100, or 200 mg/kg body weight by oral gavage once daily for 14 consecutive days. Animals were monitored for changes in body weight and signs of overt toxicity and mortality. On day 15, following an overnight fast with water available ad libitum, animals were anesthetized with isoflurane. One whole blood sample of approximately 1 ml was collected into tubes containing EDTA for hematological analysis, and a second sample of approximately 1 ml was collected into a tube with no anticoagulant for serum chemistry analysis. Blood sample analyses were performed by IDEXX (West Sacramento, Calif.). Following blood collection, the diaphragm was incised and the animals were sacrificed. Macroscopic observations were recorded for each animal and the liver, kidneys, heart, spleen, lungs, stomach, small intestines, and large intestines were collected for histological assessment.
# HIF-1α = HIF-1α stabilization in cells, TRANSAM HIF-1 ELISA of nuclear fractions; assay type: cell-based, Human; conditions: epithelial cells (293A) and hepatocellular carcinoma (Hep3B); FIG. 12B
# Method: Stabilization of HIFα using compounds and methods of the present invention was examined as follows. Human cells derived from adenovirus-transformed fetal kidney epithelium (293A), cervical epithelial adenocarcinoma (HeLa), hepatocellular carcinoma (Hep3B), squamous carcinoma (SSC-25), and lung fibroblast (HLF) (see, e.g., American Type Culture Collection, Manassas Va.; and Qbiogene, Carlsbad Calif.) were separately seeded into 100 mm culture dishes and grown at 37° C., 20% O2, 10% CO2 in media as follows: HeLa cells in Dulbecco's Modification of Eagle's Medium (DMEM), 2% fetal bovine serum (FBS); HLF cells in DMEM, 10%FBS; 293A cells in DMEM, 5%FBS; and Hep3B cells in Minimal Essential Medium (MEM), Earle's BSS (Mediatech Inc., Herndon Va.), 2 mM L-glutamine, 0.1 mM non-essential amino acids, 1 mM sodium pyruvate, 10% FBS. When cell layers reached confluence, the media was replaced with OPTI-MEM media (Invitrogen Life Technologies, Carlsbad Calif.) and cell layers were incubated for approximately 24 hours in 20% O2, 10% CO2 at 37° C. Compound of the invention (one of compounds B, F, G, and H) or DMSO (0.5 to 1%) was then added to existing medium, and incubation was continued overnight.
# Alternatively, nuclear fractions were prepared using a Nuclear Extract kit (Active Motif, Carlsbad Calif.) and were analyzed for HIF-1α using a TRANSAM HIF-1 ELISA kit (Active Motif) according to the manufacturer's instructions.
compound,measurement,setting,value
"O=C(O)CNC(=O)c1nc(Cl)c2ccccc2c1O [compound B, [(1-Chloro4-hydroxy-isoquinoline-3-carbonyl)-amino]-acetic acid]",aldolase expression,"aldolase; 293A cells treated for 24, 48, and 72 hours, vs vehicle control",increased over time
same,β-tubulin expression,"aldolase; 293A cells, specificity control",no increases
same,blood glucose levels,[1],dose-dependent decrease
same,"relative heart weight, expressed as a fraction of the total body weight, compared to control","[2]; rats, 100 mg/kg, p=0.036, one-way ANOVA/Tukey's test",significantly increased
same,weight gain,"[2]; rats, 20, 60, 100, or 200 mg/kg oral gavage once daily for 14 days, FIG. 7A",dose-dependent retardation
same,visceral fat,"[2]; rats, 20 to 200 mg/kg oral gavage 14 days, FIG. 8",dose-dependent reduction
same,visceral fat pads at higher doses,"[2]; rats, higher doses of compound, FIG. 8 bottom panel",complete absence of fat pads
same,absolute heart weight compared to control,"[2]; rats, oral gavage 14 days, FIG. 7B",no statistically significant difference
same,HIFα stabilization and accumulation (ELISA) compared to vehicle-treated control cells,HIF-1α,stabilization and accumulation of HIFα
